Among the data in a melting point compilation (Tetko et al.; mined from patent text by program, amines drawn as free bases though some values may be those of a salt) are melting point values, retold here.

Broadly, the melting point is the temperature, or range, at which the solid turns liquid.

`CC(CCC(=O)O)C1CCC2C3C(O)CC4CC(O[Si](C)(C)C(C)(C)C)CCC4(C)C3CC(O)C12C` (centres undefined) registered a melting point of 146 °C.
`Cc1cccc(C)c1-n1cc(C#N)c(=O)n(C)c1=O` showed a melting point of 198 to 200 °C.
`COc1ccc(-c2cc(C(=O)O)c(=O)n(CC3CC3)n2)cc1F` showed a melting point of 169 to 171 °C.
With `Cc1ccc(C(=O)COC(=O)NC(C)C)cc1` the figure was 130 to 133 °C; with `COC(=O)c1ccc2ncc(C(=O)c3ccc(N4C[C@H](CNC(C)=O)OC4=O)cc3)n2c1`, 231 to 233 °C; with `COC(=O)c1ccc(OC)c2cc(OC)ccc12`, 102 to 104 °C.
For the compound `CC(=O)NCCCn1cc(C2=C(c3cn(C)c4ccccc34)C(=O)NC2=O)c2ccccc21`, the melting point lay in the range of 132 to 136 °C.
With `Cc1ccsc1-c1ccc(C(C)C(=O)O)cc1` (centres undefined) the figure was 95 to 96 °C.
`COc1ccc(C2CCC(=O)CC2=O)cc1` (centres undefined) yielded a melting point of 150 to 151 °C.
`Cc1c(O)c(C)c(CS)c(C)c1CS`: the melting point was found to be 159 °C.
The compound `CC(=O)SCC(=Cc1ccccc1)C(=O)NCCC(=O)OCc1ccccc1` displayed a melting point of 80 °C.
`O=c1c2cc([N+](=O)[O-])ccc2cc2n1CCCS2(=O)=O` gave a melting point of 242 to 244 °C.
Consider `CCN(CC)CCNC(=O)c1cc(I)cc2c(Cl)ccnc12`, for which the melting point is 76 to 78 °C.
With `Cc1ccc(C(=O)Oc2c(N3CCCC3)c(=O)n(-c3ccccc3)c3ncccc23)cc1`, the melting point was 216 to 217 °C.
The compound `Cc1c(N2CCN(C(C)C)CC2)nn2c(-c3ccnnc3)c(-c3ccc(F)cc3)nc2c1C` showed a melting point of 222 to 224 °C.
In turn, `O=C(O)CCC(=NOCc1ccc(OCc2coc(-c3ccccc3)n2)cc1)c1ccccc1` showed a melting point of 144 to 145 °C.
On to `COCCNC(N)=Nc1ccccc1N1CCCCC1`, for which the melting point fell in the range of 218 to 220 °C.
Compound `CCN(CC)S(=O)(=O)c1ccc(-c2cnc3[nH]c(CCc4cc(OC)ccn4)nc3c2)cc1` had a melting point of 127 to 129 °C.
In turn, `O=C1NCCC[C@@H]1NS(=O)(=O)c1cccc(F)c1` had a melting point of 159 to 160 °C.
In turn, `Cc1cc(OCc2sc(-c3ccc(C(F)(F)F)cc3)nc2C)ccc1Cc1nn[nH]n1` returned a melting point of 165 °C.
With `COc1cc(OC)nc(NC(=O)NS(=O)(=O)c2sccc2C(CCl)OC(C)=O)n1` (centres undefined) the figure was 150 to 151 °C; with `FC(F)(F)c1ccc(-c2cc(Oc3ccc4cccnc4c3)ncn2)c(NCC2CCCCC2)c1`, 137 to 138 °C; with `CCOC(=O)Cn1c2c([nH]c(=O)c1=O)CCC1=C2C=C(n2ccc(C=O)c2)CC1`, above 250 °C.
With `COC(=O)c1ccc(Cc2cn(C)c3ccc(NC(=O)CC4CCCC4)cc23)c(OC)c1`, the melting point lay within 180 to 181 °C.
Turning to `Cc1cc(OC(=O)c2ccc(Cl)c(OCCn3cnnn3)c2Cl)n(C)n1`, the melting point is 138 to 140 °C.
With `CC(O)CN1N=CCCC1c1ccc(Cl)c(Cl)c1` (centres undefined) the figure was 75 to 77 °C; with `CC(C)COc1c(-c2ccc(S(N)(=O)=O)cc2)cnn(CC(F)(F)F)c1=O`, 170 to 172 °C; with `O=C(Nc1nccs1)C(CC1CCCC1)c1ccc([N+](=O)[O-])cc1` (centres undefined), 134 to 136 °C.
With `CNC(COc1ccc(C2C(=O)Oc3c2cc(C(C)(C)C)cc3C(C)(C)C)cc1)C(=O)O` (centres undefined) the figure was 115 to 121 °C; with `Cc1ccc(-n2cnnc2C(F)(F)F)c(C)c1`, 77 °C; with `Cc1cc(-c2cnn3c(C(F)(F)F)cc(-c4ccc(F)c(Cl)c4)nc23)ccn1`, 292 °C.
With `Cc1c(-c2ccccc2)oc2c(C(=O)CCC(=O)O)cccc2c1=O` the figure was 191 to 192 °C; with `COC(=O)CCCCC(=O)Nc1ccc2c3c(n(CCCNC(=O)OC(C)(C)C)c(=O)c2c1)-c1ccccc1C3=O`, 143 to 145 °C.
`CCOC(C)n1cnc(C(N)=O)n1` (centres undefined) yielded a melting point of 163 to 166 °C.
